The text below walks through data of PMC4822137, “Proteasomes generate spliced epitopes by two different mechanisms and as efficiently as non-spliced epitopes” (Scientific Reports, 2016).

Assay [1] relates to HLA-A*03:01/-A*02:01/-A*32:01+ HeLa cells / specific CD8+ T cell clones. The assay can be described thus: semi-quantitative cell surface presentation of epitopes (IFN-γ release vs peptide titration). In kind it is cell-based, human. The following applies: E:T 4:1.
The test system of assay [2] is HLA-A*02:01+ HeLa cells / gp100mel-specific CD8+ T cells. Briefly: titration of peptide-pulsed HeLa cells with specific CD8+ T cells (IFN-γ release). The class given is cell-based, human. Conditions: E:T 1:1, TCR-transduced CD8+ T cells.
Description: Therefore we first performed titration experiments with HeLa cells expressing the target HLA-A molecules, pulsed with the antigenic peptides and co-cultivated them with the respective peptide-specific CD8^+ T-cell clones (Fig. 6A–E upper panels). […] T cell assays were performed with transduced CD8^+ T cells expressing the corresponding TCR. […] We next transfected HeLa^HLA-A*03:01+ cells with plasmids encoding the M210gp100^mel variant, or the NY-ESO-1 proteins together with the three HLA-A*32:01, -A*02:01 and -A*03:01molecules.
The data are the mean and bars the SD of three replicates of a representative assay of independent experiments (n = 2–6). […] Values are the means and bars the SEM of independent experiments (n = 2–7; each experiment with three independent replicates). […] The IFN-γ-release in the medium was measured by ELISA after 16 hrs co-culture.
Assay [3] addresses HLA-A*02:01 (Homo sapiens, UniProt P04439, D140Y/D185E/D98H/E176V/E277Q/G131W/G231S/I119V/I121R/I166T/I218V/L300P/L318F/N151K/N90K/P208A/P217A/Q86G/Q94H/R138H/R169H/T345S). The following applies: stated as known, reference not given; cited from earlier work.
In assay [4] the test system is CD8+ T cells. More on the design: method as in earlier work. The following applies: T210M substitution; ref 10 (supplement); cited from earlier work.

Regarding “M210gp100^mel209–217: gp100mel209–217 in which anchor residue T210 was exchanged with a Methionine”, the “amount vs gp100mel40–42/47–52” value in assay [1] is reported as “comparable”. Besides, in assay [2], the “titration curve (IFN-γ release of specific T cells)” value was “satisfactory titration curves were obtained”. The “HLA-A*02:01 binding” value in assay [3] is reported as “better HLA-A *02:01 binding”. Besides, the “immunogenicity and CD8+ T cell response vs gp100mel209-217” value in assay [4] is given as “increase”.
